The source made the active and inactive calls.
What was measured:
[1] = target: 26S proteasome non-ATPase regulatory subunit 14 (Homo sapiens, UniProt O00487); experiment: inhibition of proteasome subunit RPN11 – biochemical, fluorescence polarization, uHTS hits, confirmation (AID 602368); assay type: functional
[2] = target: 72 kDa type IV collagenase (Homo sapiens, UniProt P08253); experiment: Dose Response validation of uHTS RPN11 inhibitor hits using a MMP-2 Fluorescence assay.; assay type: functional
[3] = target: T1, ORF 73 (Human herpesvirus 8, UniProt O40947); experiment: inhibitors of C-LANA binding to LBS DNA, dose response, biochemical, fluorescence polarization, cherry-picked samples (AID 504725); set-up: species or system Human gammaherpesvirus 8;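 also: fluorescence polarization of a labeled DNA duplex reporting LANA DNA binding; potency is for inhibitors that block LANA binding to the DNA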
T1 sequence (O40947 whole entry): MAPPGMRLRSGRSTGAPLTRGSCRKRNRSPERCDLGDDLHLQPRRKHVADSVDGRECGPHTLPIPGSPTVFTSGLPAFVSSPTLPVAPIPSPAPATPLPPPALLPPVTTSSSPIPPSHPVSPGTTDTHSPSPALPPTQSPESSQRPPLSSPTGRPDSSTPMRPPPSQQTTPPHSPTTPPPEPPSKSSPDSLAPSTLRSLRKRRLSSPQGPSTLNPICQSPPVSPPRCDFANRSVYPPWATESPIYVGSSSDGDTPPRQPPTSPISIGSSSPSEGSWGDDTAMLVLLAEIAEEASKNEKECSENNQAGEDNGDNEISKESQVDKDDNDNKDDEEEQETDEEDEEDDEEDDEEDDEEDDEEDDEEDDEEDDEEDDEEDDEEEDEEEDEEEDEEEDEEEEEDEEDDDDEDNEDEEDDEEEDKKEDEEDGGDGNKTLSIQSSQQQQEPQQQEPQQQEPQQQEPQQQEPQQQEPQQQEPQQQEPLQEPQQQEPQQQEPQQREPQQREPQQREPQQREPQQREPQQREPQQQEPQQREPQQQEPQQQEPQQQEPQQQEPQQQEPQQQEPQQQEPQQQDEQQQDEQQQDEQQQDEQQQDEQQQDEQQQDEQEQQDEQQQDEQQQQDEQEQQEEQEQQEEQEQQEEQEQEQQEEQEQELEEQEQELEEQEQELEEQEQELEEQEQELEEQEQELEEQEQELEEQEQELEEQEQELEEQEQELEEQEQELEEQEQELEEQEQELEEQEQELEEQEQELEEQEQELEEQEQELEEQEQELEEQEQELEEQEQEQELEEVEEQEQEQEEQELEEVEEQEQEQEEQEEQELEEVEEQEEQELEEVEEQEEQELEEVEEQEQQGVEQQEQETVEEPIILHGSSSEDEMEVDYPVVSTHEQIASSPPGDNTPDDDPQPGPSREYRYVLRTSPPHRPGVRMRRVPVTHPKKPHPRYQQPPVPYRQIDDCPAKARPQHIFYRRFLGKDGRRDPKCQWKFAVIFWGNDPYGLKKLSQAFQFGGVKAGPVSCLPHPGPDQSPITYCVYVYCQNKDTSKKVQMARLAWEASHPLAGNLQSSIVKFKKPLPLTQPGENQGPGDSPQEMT

[4] = target: DNA (cytosine-5)-methyltransferase 1 (Homo sapiens, UniProt P26358); experiment: DNMT1 methyltransferase inhibitors, confirmation, biochemical, fluorescent molecular beacon (AID 602386); assay type: functional
[5] = target: Prothrombin (Bos taurus, UniProt P00735); experiment: thrombin inhibition, dose response, biochemical, fluorescence polarization, uHTS hits (AID 602369); assay type: functional
[6] = target: T2, Bifunctional protein GlmU (Mycobacterium tuberculosis, UniProt P9WMN3); experiment: Inhibitors of Mycobacterial Glucosamine-1-phosphate acetyl transferase (GlmU). Secondary screen.; set-up: species or system Mycobacterium tuberculosis H37Rv
T2 sequence (P9WMN3 whole entry): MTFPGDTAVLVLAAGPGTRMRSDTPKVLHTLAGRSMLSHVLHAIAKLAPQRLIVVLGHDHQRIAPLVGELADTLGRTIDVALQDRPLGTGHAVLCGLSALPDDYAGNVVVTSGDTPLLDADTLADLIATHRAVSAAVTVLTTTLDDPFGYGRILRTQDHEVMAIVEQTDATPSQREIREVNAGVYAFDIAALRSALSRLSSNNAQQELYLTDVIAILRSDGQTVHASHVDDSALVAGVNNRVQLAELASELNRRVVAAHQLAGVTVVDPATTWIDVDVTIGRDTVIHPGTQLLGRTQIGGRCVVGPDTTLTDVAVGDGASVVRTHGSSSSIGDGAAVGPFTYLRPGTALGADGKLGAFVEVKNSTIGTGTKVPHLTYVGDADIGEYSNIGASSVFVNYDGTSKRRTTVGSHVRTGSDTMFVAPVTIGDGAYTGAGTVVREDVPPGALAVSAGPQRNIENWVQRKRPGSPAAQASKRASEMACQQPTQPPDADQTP

[7] = target: Kallikrein-7 (Homo sapiens, UniProt P49862); experiment: Fluorescence Intensity-based biochemical primary high throughput dose response assay to identify activators of kallikrein-7 (K7) zymogen.
[8] = cytotoxicity toward NIH3T3 fibroblasts, dose response, counter-screen, cell-based, ATP luminescence, mouse fibroblasts (AID 2010); assay type: functional;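 also: cells exposed to compound for about 90 hours before reading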
[9] = Luminescence Cell-Based Dose Retest to Confirm Inhibitors of Cancer Stem Cells. [Related pubchem assays (depositor defined):AID2717, AID2721]; assay type: functional; conditions: Homo sapiens
[10] = inhibitors of intracellular T. cruzi replication, confirmation, NIH3T3 host cells, beta-gal luminescence (AID 2044); assay type: functional, cell-based;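 also: intracellular parasites grown in NIH/3T3 mouse fibroblasts as host cells; luminescent beta-galactosidase reporter signal from transgenic T. cruzi replicating inside host cells; inhibitors lower the luminescence signal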
[11] = target: Ephrin type-A receptor 4 (Mus musculus, UniProt Q03137); experiment: inhibitors of EphA4 binding to KYL peptide, primary screen, biochemical, colorimetric, mouse EphA4 (AID 689); assay type: functional
[12] = target: G-protein coupled receptor 183 (Homo sapiens, UniProt P32249); experiment: SAR confirmation of small molecule antagonists of the EBI2 receptor via a luminescent beta-arrestin assa.; assay type: functional
[13] = Dose-response inhibition of insulin secretion in a rat insulinoma line at 5 mM glucose (AID 1117331); assay type: functional, cell-based; conditions: INS-1E

Chain of G-protein coupled receptor 183 (P32249 whole entry): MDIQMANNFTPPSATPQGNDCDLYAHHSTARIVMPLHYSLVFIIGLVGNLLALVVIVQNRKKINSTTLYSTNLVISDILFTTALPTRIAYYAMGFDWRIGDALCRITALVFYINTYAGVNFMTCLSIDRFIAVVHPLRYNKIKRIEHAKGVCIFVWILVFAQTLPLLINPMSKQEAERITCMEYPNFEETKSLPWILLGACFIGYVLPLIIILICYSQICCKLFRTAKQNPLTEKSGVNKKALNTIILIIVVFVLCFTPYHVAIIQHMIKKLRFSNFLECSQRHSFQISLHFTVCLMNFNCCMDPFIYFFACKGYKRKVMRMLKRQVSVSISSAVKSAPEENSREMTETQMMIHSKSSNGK
Chain of Kallikrein-7 (P49862 whole entry): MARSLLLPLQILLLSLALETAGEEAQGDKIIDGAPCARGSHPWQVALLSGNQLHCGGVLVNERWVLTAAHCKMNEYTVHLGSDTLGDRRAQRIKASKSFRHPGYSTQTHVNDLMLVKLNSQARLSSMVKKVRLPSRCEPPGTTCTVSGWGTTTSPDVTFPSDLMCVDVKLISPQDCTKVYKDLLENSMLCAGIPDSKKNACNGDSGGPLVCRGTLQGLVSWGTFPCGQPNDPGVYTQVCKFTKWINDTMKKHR
Chain of DNA (cytosine-5)-methyltransferase 1 (P26358 whole entry): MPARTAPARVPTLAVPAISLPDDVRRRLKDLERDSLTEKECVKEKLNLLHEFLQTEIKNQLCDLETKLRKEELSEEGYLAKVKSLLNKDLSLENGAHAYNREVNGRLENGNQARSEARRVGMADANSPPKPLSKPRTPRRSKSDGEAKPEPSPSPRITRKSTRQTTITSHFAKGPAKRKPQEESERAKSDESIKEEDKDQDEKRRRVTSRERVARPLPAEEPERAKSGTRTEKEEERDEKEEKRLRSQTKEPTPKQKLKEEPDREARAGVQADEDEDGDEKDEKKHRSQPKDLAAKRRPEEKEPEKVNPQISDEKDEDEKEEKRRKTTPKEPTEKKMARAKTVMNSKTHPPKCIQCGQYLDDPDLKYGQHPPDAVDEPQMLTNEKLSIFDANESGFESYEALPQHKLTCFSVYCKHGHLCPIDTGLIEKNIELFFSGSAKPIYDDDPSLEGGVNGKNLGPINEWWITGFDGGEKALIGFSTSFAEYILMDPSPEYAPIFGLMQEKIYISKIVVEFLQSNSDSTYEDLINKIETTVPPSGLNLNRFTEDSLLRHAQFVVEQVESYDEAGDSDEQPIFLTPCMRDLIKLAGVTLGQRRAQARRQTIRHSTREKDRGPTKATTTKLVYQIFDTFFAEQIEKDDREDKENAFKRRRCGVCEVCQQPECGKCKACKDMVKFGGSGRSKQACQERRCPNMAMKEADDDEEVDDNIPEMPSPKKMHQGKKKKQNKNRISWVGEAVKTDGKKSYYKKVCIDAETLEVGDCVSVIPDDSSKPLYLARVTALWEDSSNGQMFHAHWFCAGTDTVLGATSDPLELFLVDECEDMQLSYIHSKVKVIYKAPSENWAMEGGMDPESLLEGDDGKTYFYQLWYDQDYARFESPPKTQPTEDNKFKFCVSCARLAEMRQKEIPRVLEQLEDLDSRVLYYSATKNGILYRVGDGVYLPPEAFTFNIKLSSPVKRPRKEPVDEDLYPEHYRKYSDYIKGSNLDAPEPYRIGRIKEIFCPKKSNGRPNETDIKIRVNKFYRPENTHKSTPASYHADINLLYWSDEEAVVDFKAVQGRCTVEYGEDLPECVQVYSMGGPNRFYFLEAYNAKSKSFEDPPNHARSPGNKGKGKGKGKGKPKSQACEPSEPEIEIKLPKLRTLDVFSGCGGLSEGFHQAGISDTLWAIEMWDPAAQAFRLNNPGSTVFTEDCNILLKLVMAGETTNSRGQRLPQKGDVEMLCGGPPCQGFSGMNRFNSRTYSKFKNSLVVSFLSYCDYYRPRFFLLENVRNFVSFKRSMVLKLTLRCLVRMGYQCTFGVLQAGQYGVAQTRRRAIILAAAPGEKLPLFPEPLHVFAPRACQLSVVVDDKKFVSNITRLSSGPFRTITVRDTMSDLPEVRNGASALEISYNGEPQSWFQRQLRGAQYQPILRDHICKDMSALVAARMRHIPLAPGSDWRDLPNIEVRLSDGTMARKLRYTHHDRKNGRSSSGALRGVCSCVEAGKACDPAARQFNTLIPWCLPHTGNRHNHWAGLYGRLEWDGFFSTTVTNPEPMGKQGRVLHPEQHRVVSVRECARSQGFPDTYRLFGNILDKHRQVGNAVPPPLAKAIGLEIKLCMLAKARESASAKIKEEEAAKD
Chain of 26S proteasome non-ATPase regulatory subunit 14 (O00487 whole entry): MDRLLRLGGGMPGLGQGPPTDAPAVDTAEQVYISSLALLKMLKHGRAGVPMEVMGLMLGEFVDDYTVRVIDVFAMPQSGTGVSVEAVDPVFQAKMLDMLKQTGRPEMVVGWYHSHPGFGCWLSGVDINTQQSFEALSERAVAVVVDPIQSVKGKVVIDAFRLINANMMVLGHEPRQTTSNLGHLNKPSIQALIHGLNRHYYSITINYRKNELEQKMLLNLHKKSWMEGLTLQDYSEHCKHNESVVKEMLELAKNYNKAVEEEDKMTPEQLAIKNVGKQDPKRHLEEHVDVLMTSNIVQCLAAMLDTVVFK
Chain of 72 kDa type IV collagenase (P08253 whole entry): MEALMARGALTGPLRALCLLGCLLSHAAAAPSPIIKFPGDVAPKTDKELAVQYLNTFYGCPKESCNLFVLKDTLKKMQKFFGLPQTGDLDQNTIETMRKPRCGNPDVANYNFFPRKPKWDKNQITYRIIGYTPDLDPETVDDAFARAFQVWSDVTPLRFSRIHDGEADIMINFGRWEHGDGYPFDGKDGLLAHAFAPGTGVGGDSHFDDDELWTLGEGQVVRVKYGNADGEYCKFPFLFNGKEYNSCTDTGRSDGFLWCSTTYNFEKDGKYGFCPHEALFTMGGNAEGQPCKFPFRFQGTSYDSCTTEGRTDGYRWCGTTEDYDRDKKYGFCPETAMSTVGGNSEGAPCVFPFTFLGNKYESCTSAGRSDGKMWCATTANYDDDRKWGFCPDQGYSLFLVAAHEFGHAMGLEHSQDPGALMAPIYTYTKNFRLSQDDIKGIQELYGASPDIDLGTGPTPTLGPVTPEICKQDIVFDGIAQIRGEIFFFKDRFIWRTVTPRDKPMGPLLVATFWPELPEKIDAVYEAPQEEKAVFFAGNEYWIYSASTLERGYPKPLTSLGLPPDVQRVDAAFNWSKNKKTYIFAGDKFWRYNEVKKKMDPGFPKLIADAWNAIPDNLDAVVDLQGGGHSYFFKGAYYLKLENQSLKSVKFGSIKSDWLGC
Chain of Ephrin type-A receptor 4 (Q03137 whole entry): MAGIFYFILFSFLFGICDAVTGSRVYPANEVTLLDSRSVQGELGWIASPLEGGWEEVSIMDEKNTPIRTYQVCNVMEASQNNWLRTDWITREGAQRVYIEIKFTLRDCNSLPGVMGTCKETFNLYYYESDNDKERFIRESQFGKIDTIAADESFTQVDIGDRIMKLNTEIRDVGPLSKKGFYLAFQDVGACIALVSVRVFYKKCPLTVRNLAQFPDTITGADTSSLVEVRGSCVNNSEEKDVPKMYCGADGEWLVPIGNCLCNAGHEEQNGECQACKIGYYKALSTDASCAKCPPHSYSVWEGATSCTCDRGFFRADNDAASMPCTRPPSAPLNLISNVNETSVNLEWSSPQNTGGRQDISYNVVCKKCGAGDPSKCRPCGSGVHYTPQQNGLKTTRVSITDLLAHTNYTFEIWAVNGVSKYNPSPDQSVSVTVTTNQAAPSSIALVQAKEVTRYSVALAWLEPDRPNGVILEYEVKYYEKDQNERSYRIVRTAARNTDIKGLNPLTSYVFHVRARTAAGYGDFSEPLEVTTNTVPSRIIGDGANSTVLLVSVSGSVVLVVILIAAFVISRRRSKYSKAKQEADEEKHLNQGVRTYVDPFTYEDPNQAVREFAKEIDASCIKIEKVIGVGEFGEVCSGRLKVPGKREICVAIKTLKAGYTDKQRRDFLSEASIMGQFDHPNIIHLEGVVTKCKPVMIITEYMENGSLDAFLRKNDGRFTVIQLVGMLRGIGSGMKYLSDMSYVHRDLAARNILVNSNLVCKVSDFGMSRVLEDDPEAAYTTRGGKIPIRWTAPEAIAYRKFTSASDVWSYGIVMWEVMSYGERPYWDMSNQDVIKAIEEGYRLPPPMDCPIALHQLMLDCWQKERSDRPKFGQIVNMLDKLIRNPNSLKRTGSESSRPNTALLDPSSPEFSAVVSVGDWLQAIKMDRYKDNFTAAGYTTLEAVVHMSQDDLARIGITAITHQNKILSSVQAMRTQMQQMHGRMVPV

For COC(=O)c1ccccc1NC(=O)CCS(=O)(=O)c1ccc(Br)cc1, the IC50 [1] was 14 µM (active), the IC50 [2] was 22.5 µM (active) and the AC50 [3] was 31.5 µM (active). The IC50 [4] was 3.69 µM (active), the IC50 [5] was > 100 µM (inactive) and the IC50 [6] was 28.6 µM (active).
In the case of Cc1cc(Nc2cccc(F)c2)nc(-c2ccccc2O)n1, the EC50 [7] was > 69.5 µM (inactive), the EC50 [8] was > 60 µM (not active) and the AC50 [9] was 3.68 µM (active). The EC50 [10] was 4.15 µM (active).
For Cc1ccc(NC(=O)C2=CC(c3cccs3)=NS(=O)(=O)N2C)cc1, the EC50 [7] was 33.9 µM (inactive).
With C/C(=C\C(=O)c1ccccc1)NNc1nc2ccccc2s1 the IC50 [11] was > 100 µM (not active).
With CC(C)(C)c1ccc(S(=O)(=O)N2CCN(C(=O)/C=C/c3ccc(F)cc3)CC2)cc1 the IC50 [12] was 0.0124 µM (active).
For O=C(/C=C/c1ccc(Br)cc1)N1CCN(C(=O)c2ccc(Cl)cc2)CC1, the IC50 [12] was 0.000409 µM (active).
With O=C(/C=C/c1ccc(F)cc1)N1CCN(S(=O)(=O)c2cc(Cl)ccc2Cl)CC1 the IC50 [12] was 0.0219 µM (active).
For CC(CCc1ccccc1)NC(C)C(O)c1ccc(O)cc1 (stereo unspecified) [NYLIDRIN], the IC50 [13] was 14.5 µM (inactive).

Reference: ChEMBL document CHEMBL1201862, “PubChem BioAssay data set” (2004)
